Like-named read-outs stand apart in the source and are kept apart here.
Tests used:
[1] = system: HSV-1 Strain F in Vero or MRC5 cells; assay: Viral qPCR assay HSV-1 (V0/V1, V2/V3), EC50; format: cell-based
Procedure, shortened: (§1)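 Infected cells added to compounds (10-point 3-fold series), ~72 h at 37 °C, then lysed; viral genomes by TaqMan qPCR against plasmid standard, normalized to PPIA in V0/V1 only, EC50 from 4-parameter fit. HCMV AD169, 0.05-0.1 pfu/cell, ± 50% FBS; VZV 0.04-0.1 pfu/cell; HSV-1 F 0.0005-0.004 pfu/cell.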

[2] = system: HCMV Strain AD169 in MRC-5 cells; assay: Viral qPCR assay HCMV (V0/V1, V2/V3), EC50; format: cell-based
Procedure, shortened: as §1

[3] = molecular target: T1, varicella zoster virus DNA polymerase (Varicella-zoster virus, UniProt P09252); assay: VZV polymerase assay (AlphaLISA, IC50); format: biochemical; settings: polymerase assay of Example 190
T1 construct: made in house; host or cells: SF21 insect cells (baculovirus vector)
Experimental: Human cytomegalovirus and varicella zoster virus DNA polymerases were expressed via baculovirus vector in SF21 cells and purified. Heterodimeric nucleic acid substrate used in the herpesvirus polymerase reactions was generated by annealing a 59-mer template to a 17-mer digoxigenin-labeled primer. Polymerase (HCMV final concentration of 0.2 nM; VZV final concentration of 0.4 nM) was combined with an inhibitor compound or DMSO in assay buffer (10 mM HEPES, pH 7.5, 25 mM KCl, 25 mM NaCl, 5 mM MgCl2, 5% glycerol, 0.67 mg/ml bovine serum albuminutes, and 1 mM tris(2-carboxyethyl)phosphine), and this mixture was pre-incubated for 30 minutes at room temperature in 384-well microtiter plates. The polymerization reaction was initiated by the addition of template/primer substrate (final concentration: 1.6 nM), and dNTPs (final concentration: 24 nM dCTP, 24 nMdGTP, 16 nM dATP, 16 nM dTTP, and 0.8 nM biotin-dUTP). After 60 minutes incubation at 37° C., reactions were terminated with quench buffer (25 mM HEPES pH 7.5, 100 mM NaCl, 0.25% Tween-20, 12 mM EDTA, and 1 mg/ml bovine serum albumin). Incorporation of biotinylated UTP was detected with 2.5-5 ug/ml anti-DIG AlphaLISA acceptor beads and 5-10 ug/ml streptavidin AlphaLISA donor beads (Perkin Elmer). Compound effects were normalized to the window defined by the controls (DMSO only and pre-quenched wells), and were fit using a 4-parameter algorithm to report an IC50.

[4] = system: VZV in MeWo or MRC5 cells; assay: Viral qPCR assay VZV (V0/V1, V2/V3), EC50; format: cell-based
Procedure, shortened: as §1

[5] = molecular target: T2, Human cytomegalovirus DNA polymerase (Human cytomegalovirus, UniProt P08546); assay: HCMV polymerase assay (AlphaLISA, IC50); format: biochemical; settings: polymerase assay of Example 190
T2 construct: made in house; host or cells: SF21 insect cells (baculovirus vector)
Procedure, shortened: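 Baculovirus-expressed polymerase (HCMV 0.2 nM, VZV 0.4 nM final) preincubated 30 min at room temperature with compound in pH 7.5 HEPES buffer; reaction started with 1.6 nM DIG-primer/template and nM dNTPs including biotin-dUTP, run 60 min at 37° C. Incorporation detected by AlphaLISA; IC50 from 4-parameter fit.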

[6] = Human betaherpesvirus 5, AD169, MRC5, viral qPCR assay of Example 191, read-out: HCMV Cell (EC50)
[7] = MRC5 cells, 10%, read-out: VZV Cell (EC50) MRC5 10%
[8] = Human alphaherpesvirus 1, MRC5, MRC5 cells, 10%, read-out: HSV1 Cell (EC50) MRC5 10%
[9] = Human alphaherpesvirus 3, MRC5, MRC5 cells, 10%, read-out: VZV Cell (EC50) MRC5 10%
[10] = Human alphaherpesvirus 1, Vero, VERO cells, 10%, read-out: HSV1 Cell (EC50) VERO 10%
[11] = Human alphaherpesvirus 3, MeWo, MEWO cells, 10%, read-out: VZV Cell (EC50) MEWO 10%

T2 sequence (P08546 whole entry): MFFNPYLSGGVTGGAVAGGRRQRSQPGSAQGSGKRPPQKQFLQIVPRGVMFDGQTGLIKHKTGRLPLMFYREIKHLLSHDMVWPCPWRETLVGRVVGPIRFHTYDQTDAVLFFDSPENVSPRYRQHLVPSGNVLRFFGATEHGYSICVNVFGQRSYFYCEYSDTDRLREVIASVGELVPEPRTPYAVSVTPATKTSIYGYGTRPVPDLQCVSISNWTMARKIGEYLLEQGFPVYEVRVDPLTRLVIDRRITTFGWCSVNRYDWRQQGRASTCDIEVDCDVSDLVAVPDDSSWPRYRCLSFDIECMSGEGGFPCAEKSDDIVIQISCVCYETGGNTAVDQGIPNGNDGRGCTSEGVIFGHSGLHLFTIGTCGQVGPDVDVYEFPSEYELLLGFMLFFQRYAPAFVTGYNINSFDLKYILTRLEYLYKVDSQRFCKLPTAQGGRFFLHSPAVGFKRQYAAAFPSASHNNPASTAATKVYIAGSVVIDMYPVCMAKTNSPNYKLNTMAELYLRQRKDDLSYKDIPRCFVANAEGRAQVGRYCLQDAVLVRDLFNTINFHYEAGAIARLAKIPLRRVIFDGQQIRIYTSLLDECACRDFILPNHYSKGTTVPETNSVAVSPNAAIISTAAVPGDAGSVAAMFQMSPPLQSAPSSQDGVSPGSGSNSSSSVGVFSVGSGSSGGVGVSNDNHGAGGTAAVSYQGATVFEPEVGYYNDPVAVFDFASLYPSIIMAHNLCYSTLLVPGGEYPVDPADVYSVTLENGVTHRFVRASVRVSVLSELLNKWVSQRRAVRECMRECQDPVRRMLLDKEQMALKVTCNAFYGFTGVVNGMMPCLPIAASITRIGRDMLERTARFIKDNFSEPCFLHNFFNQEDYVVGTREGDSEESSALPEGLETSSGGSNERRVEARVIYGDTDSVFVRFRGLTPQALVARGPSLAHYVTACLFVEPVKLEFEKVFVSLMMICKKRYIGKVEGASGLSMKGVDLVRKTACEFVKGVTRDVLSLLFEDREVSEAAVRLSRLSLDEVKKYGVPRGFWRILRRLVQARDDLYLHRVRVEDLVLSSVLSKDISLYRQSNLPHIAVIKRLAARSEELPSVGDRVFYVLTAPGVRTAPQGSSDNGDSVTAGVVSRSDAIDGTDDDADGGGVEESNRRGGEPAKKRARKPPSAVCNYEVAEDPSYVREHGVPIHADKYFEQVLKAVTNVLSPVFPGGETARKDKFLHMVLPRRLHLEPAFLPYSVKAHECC
T1 sequence (P09252 whole entry): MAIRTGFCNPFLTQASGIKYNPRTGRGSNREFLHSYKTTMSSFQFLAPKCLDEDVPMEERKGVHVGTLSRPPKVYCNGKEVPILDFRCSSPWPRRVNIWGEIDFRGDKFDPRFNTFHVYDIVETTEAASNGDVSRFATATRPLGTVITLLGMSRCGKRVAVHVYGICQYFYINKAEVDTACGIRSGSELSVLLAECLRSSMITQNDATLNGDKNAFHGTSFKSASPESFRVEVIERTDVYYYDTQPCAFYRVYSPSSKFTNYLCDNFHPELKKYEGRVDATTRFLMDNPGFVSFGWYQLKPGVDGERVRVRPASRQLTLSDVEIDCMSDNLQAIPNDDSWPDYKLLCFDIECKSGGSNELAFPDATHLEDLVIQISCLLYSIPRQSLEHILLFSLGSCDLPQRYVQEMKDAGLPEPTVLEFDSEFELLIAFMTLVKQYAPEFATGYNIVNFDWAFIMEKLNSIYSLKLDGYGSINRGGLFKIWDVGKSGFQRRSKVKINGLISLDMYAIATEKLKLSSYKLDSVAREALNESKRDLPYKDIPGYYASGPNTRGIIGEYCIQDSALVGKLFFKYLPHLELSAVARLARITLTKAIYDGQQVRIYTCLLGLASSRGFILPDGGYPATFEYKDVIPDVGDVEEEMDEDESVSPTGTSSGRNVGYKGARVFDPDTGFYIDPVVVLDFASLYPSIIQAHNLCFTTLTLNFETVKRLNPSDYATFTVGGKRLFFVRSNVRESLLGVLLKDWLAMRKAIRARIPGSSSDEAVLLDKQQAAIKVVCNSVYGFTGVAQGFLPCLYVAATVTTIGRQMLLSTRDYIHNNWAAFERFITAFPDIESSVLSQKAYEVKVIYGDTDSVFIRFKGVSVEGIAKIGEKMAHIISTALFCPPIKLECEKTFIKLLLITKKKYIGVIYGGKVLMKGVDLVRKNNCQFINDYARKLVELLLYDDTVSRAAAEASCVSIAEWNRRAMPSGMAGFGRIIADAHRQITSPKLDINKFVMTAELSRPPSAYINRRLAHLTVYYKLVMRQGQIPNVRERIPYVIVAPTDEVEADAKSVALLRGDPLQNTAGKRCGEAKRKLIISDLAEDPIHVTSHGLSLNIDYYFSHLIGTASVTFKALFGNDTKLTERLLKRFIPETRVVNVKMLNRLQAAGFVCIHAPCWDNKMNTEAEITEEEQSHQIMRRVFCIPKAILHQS

| SMILES | IC50 [3] [nM] | IC50 [5] [nM] | EC50 ([1]; MRC5 cells, 10%, read-out: HSV1 Cell (EC50) MRC5 10%) [nM] | EC50 [2, 6] [nM] | EC50 [4, 7] [nM] | EC50 [1, 8] [nM] | EC50 [4, 9] [nM] | EC50 [1, 10] [nM] | EC50 [4, 11] [nM] | EC50 ([1]; Human alphaherpesvirus 1, Vero, read-out: HSV1 Cell (EC50) VERO 10%) [nM] | EC50 ([2]; Human betaherpesvirus 5, AD169, MRC5, read-out: HCMV Cell (EC50)) [nM] | EC50 ([4]; Human alphaherpesvirus 3, MeWo, read-out: VZV Cell (EC50) MEWO 10%) [nM] | EC50 ([1]; VERO cells, 10%, read-out: HSV1 Cell (EC50) VERO 10%) [nM] | EC50 ([2]; viral qPCR assay of Example 191, read-out: HCMV Cell (EC50)) [nM] |
| --- | --- | --- | --- | --- | --- | --- | --- | --- | --- | --- | --- | --- | --- | --- |
| CC(C)(O)C1CCN(c2cnc(C(=O)NCc3ccc(Cl)cc3)cc2O[C@H]2CCN3C(=O)OC[C@@H]3C2)C1 (single isomer, unassigned) [Compound 117-1] | 10.5 | 22.7 | 566 | 360 | 844 | – | – | – | – | – | – | – | – | – |
| COC(C)(C)Cc1cnc(C(=O)NCc2ccc(Cl)cc2)cc1O[C@H]1CCN2C(=O)OC[C@@H]2C1 [Compound 107] | 3.07 | 24 | – | 549 | – | 473 | 582 | – | – | – | – | – | – | – |
| CC(C)CCn1cc(-c2cnc(C(=O)NCc3ccc(Cl)cc3)cc2O[C@H]2CCN3C(=O)OC[C@@H]3C2)cn1 (racemic) [Compound 9] | 114 | 147 | – | 582 | – | – | – | 1130 | 859 | – | – | – | – | – |
| O=C(NCc1ccc(Cl)cc1)c1cc(O[C@H]2CCN3C(=O)OC[C@@H]3C2)c(C2CC(F)(F)C2)cn1 [Compound 108] | 26.4 | 45.1 | – | 844 | – | 646 | 1620 | – | – | – | – | – | – | – |
| O=C(NCc1ccc(Cl)cc1)c1cc(O[C@H]2CCN3C(=O)OC[C@@H]3C2)c(-c2cnn(CC(F)(F)F)c2)cn1 [Compound 17] | 21 | 23.1 | – | 380 | – | – | – | 426 | 368 | – | – | – | – | – |
| Cn1cc(-c2cnc(C(=O)NCc3ccc(Cl)cc3)cc2O[C@H]2CCN3C(=O)COC[C@@H]3C2)cn1 (racemic) [Compound 157] | 70.8 | 150 | – | – | – | – | – | – | – | 222 | 901 | 852 | – | – |
| C[C@@H]1CN(C)CCN1c1cc(C(=O)NCc2ccc(Cl)cc2)ncc1C#N [Compound 175] | 76.9 | 48.2 | – | 1220 | – | 3390 | 3320 | – | – | – | – | – | – | – |
| O=C(NCc1ccc(Cl)cc1)c1cc(O[C@H]2CCN3C(=O)OC[C@@H]3C2)c(C2CC2CO)cn1 (single isomer, unassigned) [Compound 156-2] | 4.96 | 8.03 | – | – | 1180 | – | – | – | – | – | – | – | 738 | 600 |

Further lines, with some results ahead:

| IC50 [3] [nM] | IC50 [5] [nM] | SMILES | EC50 ([1]; MRC5 cells, 10%, read-out: HSV1 Cell (EC50) MRC5 10%) [nM] | EC50 [2, 6] [nM] | EC50 [4, 7] [nM] | EC50 [1, 8] [nM] | EC50 [4, 9] [nM] | EC50 [1, 10] [nM] | EC50 [4, 11] [nM] | EC50 ([1]; Human alphaherpesvirus 1, Vero, read-out: HSV1 Cell (EC50) VERO 10%) [nM] | EC50 ([2]; Human betaherpesvirus 5, AD169, MRC5, read-out: HCMV Cell (EC50)) [nM] | EC50 ([4]; Human alphaherpesvirus 3, MeWo, read-out: VZV Cell (EC50) MEWO 10%) [nM] | EC50 ([1]; VERO cells, 10%, read-out: HSV1 Cell (EC50) VERO 10%) [nM] | EC50 ([2]; viral qPCR assay of Example 191, read-out: HCMV Cell (EC50)) [nM] |
| --- | --- | --- | --- | --- | --- | --- | --- | --- | --- | --- | --- | --- | --- | --- |
| 139 | 223 | Cc1cnn(-c2cnc(C(=O)NCc3ccc(Cl)cc3)cc2O[C@H]2CCN3C(=O)OC[C@@H]3C2)c1 [Compound 105] | – | 1300 | – | – | – | 655 | 870 | – | – | – | – | – |
| 3.37 | 28.9 | COc1cc(-c2cnc(C(=O)NCc3ccc(Cl)cc3)cc2OC2CCN(C(C)=O)CC2)sn1 [Compound 45] | – | 455 | – | 135 | 128 | – | – | – | – | – | – | – |
| 87.4 | 178 | Cn1cc(-c2cnc(C(=O)NCc3ccc(Cl)cc3)cc2O[C@H]2CCN3C(=O)CC[C@H]3C2)cn1 (racemic) [Compound 170] | – | 736 | – | – | – | 266 | 599 | – | – | – | – | – |
| 181 | 238 | CC(=O)N1CCC(Oc2cc(C(=O)NCc3ccc(Cl)cc3)ncc2-c2ccn(C)n2)CC1 [Compound 61] | – | 484 | – | – | – | 108 | 81.6 | – | – | – | – | – |
| 1.98 | 26.2 | CC(=O)N1CCC(Oc2cc(C(=O)NCc3ccc(Cl)cc3)ncc2-c2cc(C)ns2)CC1 [Compound 44] | – | 182 | – | 154 | 120 | – | – | – | – | – | – | – |
| 11.1 | 13.5 | CC(=O)N1CCC(Oc2cc(C(=O)NCc3ccc(Cl)cc3)ncc2-c2ncc(C)s2)CC1 [Compound 63] | – | 246 | – | 310 | 215 | 34.2 | – | – | – | – | – | – |
